Data taken from paper PMC8068801, “Novel Benzenesulfonate Scaffolds with a High Anticancer Activity and G2/M Cell Cycle Arrest” (Cancers, 2021).

Assays:
NHDF cells = experiment: MTS cytotoxicity assay, normal fibroblasts NHDF; type: cell-based; settings: NHDF normal human fibroblasts, 72 h incubation
From the text: (§1) M. Rusin from the Maria Sklodowska-Curie Memorial Cancer Centre and Institute of Oncology in Gliwice, Poland. […] G. Kramer-Marek from the Institute of Cancer Research in London, United Kingdom. The human suspension chronic myelogenous leukemia cell line K562 and pancreas ductal adenocarcinoma cell line PANC-1 were purchased from Sigma-Aldrich (St. Louis, MO, USA), while the normal human dermal fibroblasts cell line NHDF were purchased from PromoCell. […] Each medium contained a combination of two antibiotics: penicillin and streptomycin (1% v/v; Gibco). All of these cell lines were grown under standard conditions at 37 °C with a 5% CO2 humidified atmosphere. Moreover, all of the cell lines were routinely tested for mycoplasma using the PCR technique with specific Mycoplasma primers to confirm that there was no contamination.
(§2) The assay was performed following a 72 h incubation with the various concentrations of the tested compounds. Then, 100 µL DMEM without phenol red with 20 µL of the CellTiter 96®AQueous One Solution-MTS (Promega, Promega, WI, USA) was added to each well and incubated for 1 h or 3 h (PANC-1) at 37 °C. The optical densities of the samples were measured at 490 nm using a multi-plate reader (Synergy 4, BioTek, Winooski, VT, USA). […] Each individual compound was tested in triplicate in a single experiment with each experiment being performed three or four times.

K562 cells = experiment: MTS cytotoxicity assay, K562; type: cell-based, human
From the text: as §1, §2

HCT 116 p53^−/− cells = experiment: MTS cytotoxicity assay, HCT 116 p53-/-; type: cell-based, human
From the text: as §1, §2

U-251 cells = experiment: Immunoblotting with densitometry, U-251; type: cell-based, human
Procedure: The K562 and U-251 cells were seeded in 3 cm Petri dishes (Nunc) at a density of 500,000 cells per well and incubated overnight. […] Next, the cell pellets were resuspended in an RIPA buffer containing a Halt Protease Inhibitor Cocktail and a Halt Phosphatase Inhibitor Cocktail along with 0.5 M EDTA (all from Thermo Scientific, Waltham, MA, USA) and lysed on ice for 20 min. Then, the obtained lysates were sonicated and centrifuged at 10,000 rpm for 10 min at 4 °C. The supernatants were collected for further analysis. The protein concentration was measured using a Micro BCA™ Protein Assay Kit (Thermo Scientific) according to the manufacturer’s instructions. Equal amounts of the proteins (16 μg) were electrophoresed on SDS-Page gels and transferred onto nitrocellulose membranes. The membranes were blocked in 5% non-fat milk prepared in TPBS (PBS containing 0.1% Tween-20) for 1 h. After blocking, the membranes were incubated with the specific primary antibodies (all from Cell Signaling) at a 1:1000 dilution—cyclin E, cdc2, PARP, AIF, BID, p53, p21^Waf1/Cip1, HIF-1α, cathepsin B and caspase-9—and at a 1:2000 dilution for the reference proteins—vinculin, β-actin and GAPDH—overnight at 4 °C. The next day, the membranes were washed in TPBS and incubated with horseradish peroxidase (HRP)-conjugated secondary antibodies for 1 h at room temperature. Lastly, the membranes were washed in TPBS and incubated with a SuperSignal™ West Pico Chemiluminescent Substrate (Thermo Scientific). The chemiluminescence signals were captured using a ChemiDoc™ XRS + System (Biorad). The experiments were performed at least four to five times. The densitometric analysis was conducted using ImageJ software (Wayne Rasband, National Institutes of Health, Bethesda, MD, USA).
The band intensity of tested proteins (p53, cyclin E1, cdc2, p21, HIF-1α, cathepsin b, PARP, caspase-9, BID, AIF) were analyzed by densitometry readings/intensity ratio, using ImageJ software (NIH) and were normalized to the corresponding reference proteins (GAPDH, vinculin or β-actin) value.
The densitometric readings/intensity ratio data from four/five independent experiments (compared to control): […]
p53/ Refer- p21/ Refer- cdc2/ Refer- Cyclin E1/ HIF-1α/ Cathepsin b/Reference ence ence ence Reference Reference
PARP/Reference BID/ Reference Caspase-9/Reference […]

MCF-7 cells = experiment: MTS cytotoxicity assay, MCF-7; type: cell-based, human
From the text: as §1, §2

BRK = biological target: T1, BRK (Homo sapiens, UniProt Q13882); experiment: Tyrosine kinase assay (Kinase Selectivity TK-2, ADP-Glo); type: biochemical; settings: read-out: Inhibitory Effect of the Tyrosine Kinase Activity, BRK
T1 construct: purchased Promega
Procedure: (§3) Assays using the Kinase Selectivity TK-2 profiling systems and ADP-Glo Kinase Assay (both from Promega) were performed to determine the inhibition of the non-receptor tyrosine kinases. The protocol was previously designed and described by our group in reports. The experiments were performed at least four times. The data are expressed as the percentage of the inhibition activity of tyrosine kinase after treatment with the tested derivatives.

BTK = biological target: T2, BTK (Homo sapiens, UniProt Q06187); experiment: as above; type: biochemical; settings: read-out: Inhibitory Effect of the Tyrosine Kinase Activity, BTK
T2 construct: purchased Promega
Procedure: as §3

ABL1 = biological target: T3, ABL1 (Homo sapiens, UniProt P00519); experiment: as above; type: biochemical; settings: read-out: Inhibitory Effect of the Tyrosine Kinase Activity, ABL1
T3 construct: purchased Promega
Procedure: as §3

Fyn A = biological target: T4, Fyn A (Homo sapiens, UniProt P06241); experiment: as above; type: biochemical; settings: read-out: Inhibitory Effect of the Tyrosine Kinase Activity, Fyn A
T4 construct: purchased Promega
Procedure: as §3

Lyn B = biological target: T5, Lyn B (Homo sapiens, UniProt P07948); experiment: as above; type: biochemical; settings: read-out: Inhibitory Effect of the Tyrosine Kinase Activity, Lyn B
T5 construct: purchased Promega
Procedure: as §3

Src = biological target: T6, Src (Homo sapiens, UniProt P12931); experiment: as above; type: biochemical; settings: read-out: Inhibitory Effect of the Tyrosine Kinase Activity, Src
T6 construct: purchased Promega
Procedure: as §3

CSK = biological target: T7, CSK (Homo sapiens, UniProt P41240); experiment: as above; type: biochemical; settings: read-out: Inhibitory Effect of the Tyrosine Kinase Activity, CSK
T7 construct: purchased Promega
Procedure: as §3

Lck = biological target: T8, Lck (Homo sapiens, UniProt P06239); experiment: as above; type: biochemical; settings: read-out: Inhibitory Effect of the Tyrosine Kinase Activity, Lck
T8 construct: purchased Promega
Procedure: as §3

T4 sequence (P06241 whole entry): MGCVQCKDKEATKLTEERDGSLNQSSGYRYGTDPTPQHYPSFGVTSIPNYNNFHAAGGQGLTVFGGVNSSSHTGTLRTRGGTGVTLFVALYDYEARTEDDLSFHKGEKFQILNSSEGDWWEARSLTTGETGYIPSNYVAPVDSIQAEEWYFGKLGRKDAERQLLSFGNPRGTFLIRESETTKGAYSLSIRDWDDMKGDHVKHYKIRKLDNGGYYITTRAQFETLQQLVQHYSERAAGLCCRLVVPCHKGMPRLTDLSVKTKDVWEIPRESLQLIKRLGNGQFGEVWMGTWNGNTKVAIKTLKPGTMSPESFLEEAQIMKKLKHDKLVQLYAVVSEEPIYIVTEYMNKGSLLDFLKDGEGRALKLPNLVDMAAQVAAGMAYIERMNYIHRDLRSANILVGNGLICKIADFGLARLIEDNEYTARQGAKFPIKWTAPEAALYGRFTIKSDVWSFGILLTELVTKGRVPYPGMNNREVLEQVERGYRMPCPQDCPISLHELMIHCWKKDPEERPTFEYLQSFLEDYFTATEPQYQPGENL
T6 sequence (P12931 whole entry): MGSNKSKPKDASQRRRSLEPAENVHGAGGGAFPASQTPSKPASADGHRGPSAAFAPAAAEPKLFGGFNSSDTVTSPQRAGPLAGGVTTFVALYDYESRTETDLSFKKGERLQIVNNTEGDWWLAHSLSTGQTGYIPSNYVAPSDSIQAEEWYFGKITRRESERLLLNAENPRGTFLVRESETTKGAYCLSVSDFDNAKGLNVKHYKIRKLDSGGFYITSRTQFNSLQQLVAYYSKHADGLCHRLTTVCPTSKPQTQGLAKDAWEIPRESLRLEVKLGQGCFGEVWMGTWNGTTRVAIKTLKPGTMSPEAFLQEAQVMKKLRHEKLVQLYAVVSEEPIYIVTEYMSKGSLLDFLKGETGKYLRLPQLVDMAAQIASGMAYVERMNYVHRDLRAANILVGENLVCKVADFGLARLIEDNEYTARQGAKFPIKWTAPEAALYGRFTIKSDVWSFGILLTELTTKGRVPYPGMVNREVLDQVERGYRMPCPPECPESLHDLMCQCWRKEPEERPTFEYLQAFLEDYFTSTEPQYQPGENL
T1 sequence (Q13882 whole entry): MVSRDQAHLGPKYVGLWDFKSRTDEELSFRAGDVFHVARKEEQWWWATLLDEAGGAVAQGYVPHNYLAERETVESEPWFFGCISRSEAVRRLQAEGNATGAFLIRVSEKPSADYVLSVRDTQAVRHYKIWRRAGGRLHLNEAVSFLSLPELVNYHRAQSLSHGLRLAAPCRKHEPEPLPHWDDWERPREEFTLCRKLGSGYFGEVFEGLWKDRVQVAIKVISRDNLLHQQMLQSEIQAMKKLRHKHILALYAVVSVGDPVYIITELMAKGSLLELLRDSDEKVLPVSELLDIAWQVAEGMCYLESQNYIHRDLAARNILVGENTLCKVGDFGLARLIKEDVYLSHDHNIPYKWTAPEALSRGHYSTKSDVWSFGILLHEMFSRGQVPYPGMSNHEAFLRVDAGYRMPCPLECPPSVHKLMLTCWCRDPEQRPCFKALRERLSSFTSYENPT
T3 sequence (P00519 whole entry): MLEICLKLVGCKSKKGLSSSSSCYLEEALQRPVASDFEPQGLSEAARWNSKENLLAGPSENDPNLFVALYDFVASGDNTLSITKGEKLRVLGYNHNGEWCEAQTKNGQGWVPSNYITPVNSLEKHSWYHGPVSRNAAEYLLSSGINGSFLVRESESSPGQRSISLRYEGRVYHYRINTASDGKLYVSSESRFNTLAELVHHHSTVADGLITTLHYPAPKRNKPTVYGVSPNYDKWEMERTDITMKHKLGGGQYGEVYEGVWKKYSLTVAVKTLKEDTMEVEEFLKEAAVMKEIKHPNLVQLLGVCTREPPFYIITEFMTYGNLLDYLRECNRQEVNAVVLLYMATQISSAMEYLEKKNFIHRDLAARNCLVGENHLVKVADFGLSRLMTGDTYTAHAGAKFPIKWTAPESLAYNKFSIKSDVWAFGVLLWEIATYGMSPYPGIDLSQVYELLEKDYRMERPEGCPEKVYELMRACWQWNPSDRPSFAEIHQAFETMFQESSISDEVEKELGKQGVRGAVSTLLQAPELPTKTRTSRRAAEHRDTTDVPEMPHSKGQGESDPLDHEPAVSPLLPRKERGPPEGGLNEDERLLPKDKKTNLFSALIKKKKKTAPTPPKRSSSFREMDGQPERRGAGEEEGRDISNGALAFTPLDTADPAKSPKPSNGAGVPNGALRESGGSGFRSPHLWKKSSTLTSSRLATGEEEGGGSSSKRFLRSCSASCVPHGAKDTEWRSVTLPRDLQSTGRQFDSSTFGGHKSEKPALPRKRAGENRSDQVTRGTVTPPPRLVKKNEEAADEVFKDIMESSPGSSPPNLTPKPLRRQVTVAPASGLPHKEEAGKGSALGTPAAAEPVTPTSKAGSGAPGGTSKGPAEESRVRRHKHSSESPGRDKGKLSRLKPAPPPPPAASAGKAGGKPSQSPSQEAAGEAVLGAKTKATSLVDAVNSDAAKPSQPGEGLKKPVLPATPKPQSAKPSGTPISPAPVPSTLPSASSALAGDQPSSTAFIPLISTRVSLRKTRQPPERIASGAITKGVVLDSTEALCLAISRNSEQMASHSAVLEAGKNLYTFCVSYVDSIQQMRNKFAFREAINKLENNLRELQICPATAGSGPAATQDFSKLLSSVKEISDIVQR
T8 sequence (P06239 whole entry): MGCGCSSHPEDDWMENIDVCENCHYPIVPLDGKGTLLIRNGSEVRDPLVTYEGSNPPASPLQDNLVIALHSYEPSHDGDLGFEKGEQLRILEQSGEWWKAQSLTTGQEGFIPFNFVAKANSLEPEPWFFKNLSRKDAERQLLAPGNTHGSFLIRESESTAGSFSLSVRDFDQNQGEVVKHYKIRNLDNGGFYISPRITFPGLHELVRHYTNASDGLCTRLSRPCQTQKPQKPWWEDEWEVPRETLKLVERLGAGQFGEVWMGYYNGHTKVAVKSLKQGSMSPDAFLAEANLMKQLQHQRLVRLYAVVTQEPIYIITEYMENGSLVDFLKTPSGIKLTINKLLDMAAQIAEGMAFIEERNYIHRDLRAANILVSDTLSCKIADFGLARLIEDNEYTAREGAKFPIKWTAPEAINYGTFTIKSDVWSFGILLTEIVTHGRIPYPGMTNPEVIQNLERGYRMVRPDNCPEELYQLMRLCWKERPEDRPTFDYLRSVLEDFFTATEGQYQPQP
T5 sequence (P07948 1-491 isoform P07948-2): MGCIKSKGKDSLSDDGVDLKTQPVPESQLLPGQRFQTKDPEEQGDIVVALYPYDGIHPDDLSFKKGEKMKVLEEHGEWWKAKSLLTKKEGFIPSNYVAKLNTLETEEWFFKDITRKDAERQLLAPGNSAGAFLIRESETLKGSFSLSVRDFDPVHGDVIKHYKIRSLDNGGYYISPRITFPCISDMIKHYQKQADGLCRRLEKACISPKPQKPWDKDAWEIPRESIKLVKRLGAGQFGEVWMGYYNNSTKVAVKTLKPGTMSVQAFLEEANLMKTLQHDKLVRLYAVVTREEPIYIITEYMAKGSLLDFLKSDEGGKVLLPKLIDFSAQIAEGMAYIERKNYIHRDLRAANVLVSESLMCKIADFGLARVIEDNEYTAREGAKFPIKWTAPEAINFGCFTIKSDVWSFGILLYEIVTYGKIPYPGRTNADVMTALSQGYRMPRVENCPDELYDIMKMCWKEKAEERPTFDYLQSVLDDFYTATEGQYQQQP
T2 sequence (Q06187 whole entry): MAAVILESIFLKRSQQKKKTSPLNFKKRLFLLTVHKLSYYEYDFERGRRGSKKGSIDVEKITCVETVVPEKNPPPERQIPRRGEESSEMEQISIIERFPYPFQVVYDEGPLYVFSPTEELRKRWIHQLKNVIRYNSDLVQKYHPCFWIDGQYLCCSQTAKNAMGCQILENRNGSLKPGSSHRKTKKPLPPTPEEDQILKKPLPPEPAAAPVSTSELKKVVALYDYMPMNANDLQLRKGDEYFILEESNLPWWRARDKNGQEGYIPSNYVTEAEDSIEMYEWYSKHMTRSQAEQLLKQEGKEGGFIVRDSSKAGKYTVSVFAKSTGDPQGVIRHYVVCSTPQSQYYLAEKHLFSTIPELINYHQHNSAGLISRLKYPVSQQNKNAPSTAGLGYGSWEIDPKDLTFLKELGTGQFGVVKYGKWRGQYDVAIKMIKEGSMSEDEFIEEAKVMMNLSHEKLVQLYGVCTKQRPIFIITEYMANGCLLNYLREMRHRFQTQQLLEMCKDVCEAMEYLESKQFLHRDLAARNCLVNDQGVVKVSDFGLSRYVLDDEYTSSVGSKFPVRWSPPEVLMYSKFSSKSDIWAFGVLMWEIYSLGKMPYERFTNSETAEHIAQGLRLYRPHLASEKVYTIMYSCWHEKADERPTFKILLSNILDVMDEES

inhibition at 0.5 µM (BRK): 35.5%
inhibition at 0.5 µM (BTK): 26.9%
inhibition at 0.5 µM (ABL1): 0%
inhibition at 0.5 µM (Fyn A): 3.51%
inhibition at 0.5 µM (Lyn B): 0%
inhibition at 0.5 µM (Src): 0%
inhibition at 0.5 µM (CSK): 28.3%
inhibition at 0.5 µM (Lck): 19.5%
SMILES: COc1ccccc1/C=C/c1nc(OS(=O)(=O)c2ccc(C)cc2)c2ccccc2n1 [BS4, 2-((E)-2-(2-methoxyphenyl)ethenyl)quinazolin-4-yl 4-methylbenzenesulfonate]
IC50 (NHDF cells): > 25 µM
IC50 (K562 cells; Homo sapiens, K562, 72 h incubation, MTS): 0.173 ± 0.031 µM
Selectivity index, K562 (K562 cells; normal fibroblasts NHDF vs K562): 144.51
IC50 (HCT 116 p53^−/− cells; Homo sapiens, HCT 116 p53^−/−, 72 h incubation, MTS): 3.72 ± 0.487 µM
Selectivity index, HCT 116 p53 −/− (HCT 116 p53^−/− cells; NHDF vs HCT 116 p53 −/−): 6.71
Cleavage product of caspase-9 (Western blot) (U-251 cells; U-251, 6 μM, 24 h): approximately three-fold increase
HIF-1α protein expression (Western blot) (U-251 cells; U-251, 24 h): significant decrease
p21 protein expression (Western blot) (U-251 cells; U-251, 24 h): more than two-fold increase
p53 protein levels (Western blot) (U-251 cells; U-251, 24 h): statistically significant increase
IC50 (MCF-7 cells; Homo sapiens, MCF7, MCF-7, 72 h incubation, MTS): 9.13 ± 2.05 µM
Selectivity index, MCF-7 (MCF-7 cells; NHDF vs MCF-7): 2.74
